Measurements as given in US8063231B2, “Methods of treating alpha adrenergic mediated conditions” (Allergan, Inc., priority 2008, dated 2011).
Values joined by “and” are separate entries in the source; they are usually repeats but may differ in a detail not shown here. Identical values can stand only once.

What was measured:
Chung model rats = assay: Tactile allodynia reversal in Chung model of chronic pain (spinal nerve ligation, von Frey hairs); assay type: in vivo, rat
Procedure: Various concentrations of N-(2,3-dichlorobenzyl)-4,5-dihydro-1H-imidazol-2-amine were administered orally to Chung model rats. A model in accordance with Kim and Chung 1992, Pain […], pp 355-363 (Chung model), for chronic pain (in particular peripheral neuropathy) involves the surgical ligation of the L5 (and optionally the L6) spinal nerves on one side in experimental animals. Rats recovering from the surgery gain weight and display a level of general activity similar to that of normal rats. However, these rats develop abnormalities of the foot, wherein the hindpaw is moderately everted and the toes are held together. More importantly, the hindpaw on the side affected by the surgery appears to become sensitive to pain from low-threshold mechanical stimuli, such as that producing a faint sensation of touch in a human, within about 1 week following surgery. This sensitivity to normally non-painful touch is called “tactile allodynia” and lasts for at least two months. The response includes lifting the affected hindpaw to escape from the stimulus, licking the paw and holding it in the air for many seconds. None of these responses is normally seen in the control group.
Rats are anesthetized before surgery. The surgical site is shaved and prepared either with betadine or Novacaine. Incision is made from the thoracic vertebra XIII down toward the sacrum. Muscle tissue is separated from the spinal vertebra (left side) at the L4-S2 levels. The L6 vertebra is located and the transverse process is carefully removed with a small rongeur to expose the L4-L6 spinal nerves. The L5 and L6 spinal nerves are isolated and tightly ligated with 6-0 silk thread. The same procedure is done on the right side as a control, except no ligation of the spinal nerves is performed.
A complete hemostasis is confirmed, then the wounds are sutured. A small amount of antibiotic ointment is applied to the incised area, and the rat is transferred to the recovery plastic cage under a regulated heat-temperature lamp. On the day of the experiment, at least seven days after the surgery, typically six rats per test group are administered the test drugs by intraperitoneal (i.p.) injection or oral gavage. […], the compounds are formulated in d H2O and given in a volume of 1 ml/kg body weight using an 18-gauge, 3 inch gavage needle that is slowly inserted through the esophagus into the stomach.
Tactile allodynia is measured prior to and 30 minutes after drug administration using von Frey hairs that are a series of fine hairs with incremental differences in stiffness. Rats are placed in a plastic cage with a wire mesh bottom and allowed to acclimate for approximately 30 minutes. The von Frey hairs are applied perpendicularly through the mesh to the mid-plantar region of the rats' hindpaw with sufficient force to cause slight buckling and held for 6-8 seconds. The applied force has been calculated to range from 0.41 to 15.1 grams. If the paw is sharply withdrawn, it is considered a positive response. A normal animal will not respond to stimuli in this range, but a surgically ligated paw will be withdrawn in response to a 1-2 gram hair. The 50% paw withdrawal threshold is determined using the method of Dixon, W. J., Ann. Rev. Pharmacol. Toxicol. 20:441-462 (1980) hereby incorporated by reference. The post-drug threshold is compared to the pre-drug threshold and the percent reversal of tactile sensitivity is calculated based on a normal threshold of 15.1 grams.

wild type rats = assay: Sedative effects (total activity counts) after intraperitoneal injection; assay type: in vivo, rat; conditions: for Sedative Effect (IP): 30 minutes post injection
Procedure: FIG. 2 depicts sedative effects (total activity counts) 30 minutes post intraperitoneal injection of 1 mg/kg and 10 mg/kg doses of N-(2,3-dichlorobenzyl)-4,5-dihydro-1H-imidazol-2-amine.
Data was acquired from wild type rats administered N-(2,3-dichlorobenzyl)-4,5-dihydro-1H-imidazol-2-amine intraperitoneally (IP). Rats were split into groups of six and administered 1 mg/kg or 10 mg/kg doses of N-(2,3-dichlorobenzyl)-4,5-dihydro-1H-imidazol-2-amine to assess the sedative effects of the administration of the agent.

Compound: Clc1cccc(CNC2=NCCN2)c1Cl [N-(2,3-dichlorobenzyl)-4,5-dihydro-1H-imidazol-2-amine]
- Peak Allodynia Reversal (Oral, 30 min.) (Chung model rats; 30 μg/kg oral): 28% and 28% +/− 9.5%
- Peak Allodynia Reversal (Oral, 30 min.) (Chung model rats; 100 μg/kg oral): 68% +/− 12.7%
- Peak Allodynia Reversal (Oral, 30 min.) (Chung model rats; 300 μg/kg oral): 84% +/− 7.5%
- Time at which analgesic effect was seen (peak percent allodynia reversal) (Chung model rats; single oral dose, FIG. 1): about 30 minutes
- Time of decrease of allodynia reversal to baseline (Chung model rats; single oral dose, FIG. 1): about 120 minutes
- Sedative Effect (IP) (wild type rats; 1 mg/kg IP): No significant effect
- Sedative effect (in words) (wild type rats; 10 mg/kg IP): significant sedative effect
- Sedative Effect (IP) (wild type rats; 10 mg/kg IP): 23% sedating
